Data published in US20160038449A1, “MULTI-COMPONENT PHARMACEUTICALS FOR TREATING DIABETES” (Complexa, Inc., priority 2010, published 2016).

Columns and labels:
WT mice [1] = experiment: Blood glucose level of fed WT mice after administration; format: in vivo; conditions: for blood glucose level: fed WT mice, level maintained over the study (FIG. 1), vehicle control about 170 mg/dL
Description: Oleic acid, nitro-oleic acid, rosiglitazone, or a vehicle control were administered to fed WT mice, and the blood glucose level of these mice was monitored.

ob/ob mice [2] = experiment: Blood glucose level of ob/ob mice after administration; format: in vivo; conditions: ob/ob mice (FIG. 2)
Description: Similar results are observed in experiments involving ob/ob mice.

[3] = design: species or system mice; conditions: mouse, in vivo
Description: In addition to reducing blood glucose levels, substantially no increase in body weight was observed when nitro-oleic acid is administered to mice as compared to mice administered a vehicle control, oleic acid, or rosiglitazone.

WT mice [4] = experiment: Insulin sensitivity: blood glucose after administration of insulin in WT mice; format: in vivo; conditions: 120 minute time course (FIG. 5)
ob/ob mice [5] = experiment: Insulin sensitivity: blood glucose after administration of insulin in ob/ob mice; format: in vivo; conditions: 120 minute time course (FIG. 6)

Row | Compound | blood glucose level (WT mice [1]) | change of blood glucose level over the course of the study (ob/ob mice [2]) | change of body weight over the course of the study [3] | blood glucose levels after administration of insulin (WT mice [4]) | blood glucose levels after administration of insulin (ob/ob mice [5]) | change of blood glucose level over the course of the study (WT mice [1]; fed WT mice (FIG. 1))
1 | 9- or 10-nitro octadecenoic acid [nitro-oleic acid] | about 125 mg/dL | effectively reduced the blood glucose level over the course of the study | initially decreased (days 0-10), and then remained substantially constant over the second half of the study | initial drop in blood glucose levels after administration of insulin followed by an increase in blood glucose back to normal levels about 120 minutes after the administration of insulin | substantial decrease in blood glucose levels over the course of the 120 minute time period | 
2 | CCCCCCCC/C=C\CCCCCCCC(=O)O [oleic acid] |  | increased blood glucose level over the course of the study | steady increase in body weight over the course of the study |  | increased over the 120 minute time course | increased blood glucose levels over the course of the study
3 | CN(CCOc1ccc(CC2SC(=O)NC2=O)cc1)c1ccccn1 (centres unmarked) [rosiglitazone] | about 150 mg/dL |  | steady increase in body weight over the course of the study |  |  | 
